The experiment concerns the target T1, enzyme elastase, e.g., human leukocyte elastase (HLE) and porcine pancreatic elastase (PPE) (Homo sapiens, UniProt P08246).
T1 sequence (P08246 30-247): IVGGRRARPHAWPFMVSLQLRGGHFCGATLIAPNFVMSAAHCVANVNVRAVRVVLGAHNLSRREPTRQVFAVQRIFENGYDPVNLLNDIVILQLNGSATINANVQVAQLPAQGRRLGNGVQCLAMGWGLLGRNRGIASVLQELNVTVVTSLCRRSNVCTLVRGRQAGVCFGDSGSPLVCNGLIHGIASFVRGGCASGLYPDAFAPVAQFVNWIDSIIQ
Kind of experiment: Elastase enzyme inhibitory studies (Ki of peptidyl carbamates). It counts as biochemical. On the procedure: These studies are conducted to show the activities of some of the compounds of this invention as inhibitors of various forms of the enzyme elastase.
All enzyme assays are performed spectrophotometrically at 25 C using CARY 219 or 2200 Vanan Spectrometers. The activity of PPE is measured using 5-Boc-L-alinlne p-mtrophenyl ester (Boc-Ala-ONP), as the substrate and monitoring the absorbance at 347.5 nm (p-nitrophenol). The activity of HLE is measured using methoxy succinyl-L-analyl-L-alanyl L-prolyl-L-valine pnitroanilide (MeO-Suc-Ala-Ala-Pro-Val-NA), as the substrate and following the absorbance at 410 nm (pnitroaniline). Active inhibitors are tested against other serine dependent proteolytic enzymes such as tryps in and chymotryps in using their respective substrates. N-benzoyl-L-arginine ethyl ester, N-benzoyl-L-tyrosine ethyl ester and monitonng the absorbance at 253 and 256 respectively. […]

Each structure is given as a SMILES string.

With `COC(=O)CCC(=O)NC(C)C(=O)NC(CCCCNC(=O)OCc1ccccc1)C(=O)N1CCCC1C(=O)CN(C(=O)Sc1nnnn1-c1ccccc1)C(C)C` (stereo not drawn) [PC5, S-(1-phenyl-5-tetrazoyl)-N-[methoxysuccinyl-alanyl-(N∈-Carbobenzoxyl)lysylprolylmethyl]-N-isopropyl-thio carbamate], the “Ki (inhibitor dissociation constant)” value is 20 nM.

With `COC(=O)CCC(=O)NC(CCCNC(=O)OCc1ccccc1)C(=O)NC(C)C(=O)N1CCCC1C(=O)CN(C(=O)Sc1nnnn1-c1ccccc1)C(C)C` (stereo not drawn) [PC6, S-(1-phenyl-5-tetrazoyl)-N-[methoxysuccinyl-(N -carbobenzoyl)ornithylalanyl(prolylmethyl)-N-isopropylthio carbamate], the “Ki (inhibitor dissociation constant)” value came out at 3 nM.

The values above are taken from patent EP0367514A2, “Human leukocyte elastase inhibitors and methods for producing and using same” (UNIVERSITY OF KENTUCKY RESEARCH FOUNDATION, priority 1988, dated 1990).
